According to PubChem BioAssay (NCI):
Where “and” joins values, the source holds several entries; their conditions need not be identical. Equal values may be shown once.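 Five concentrations, 48 hours, 96-well plates. The concentration for 50% growth inhibition is given as GI50. TGI denotes the concentration required for complete inhibition of growth.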

What was measured:
Assay in all cases: DTP human tumour cell line panel, 48 h
OVCAR-8 ovarian = tested on: OVCAR-8 ovarian
IGROV1 ovarian = tested on: IGROV1 ovarian
U251 CNS = tested on: U251 CNS
SW-620 colon = tested on: SW-620 colon
OVCAR-5 ovarian = tested on: OVCAR-5 ovarian
UO-31 renal = tested on: UO-31 renal
HL-60(TB) leukemia = tested on: HL-60(TB) leukemia
NCI-H522 lung = tested on: NCI-H522 lung
M14 melanoma = tested on: M14 melanoma
ACHN renal = tested on: ACHN renal

Row | Structure (SMILES) | TGI (OVCAR-8 ovarian) | TGI (IGROV1 ovarian) | TGI (U251 CNS) | TGI (SW-620 colon) | TGI (OVCAR-5 ovarian) | TGI (UO-31 renal) | TGI (HL-60(TB) leukemia) | TGI (NCI-H522 lung) | TGI (M14 melanoma) | TGI (ACHN renal) | GI50 (OVCAR-8 ovarian) | GI50 (IGROV1 ovarian) | GI50 (U251 CNS) | GI50 (SW-620 colon) | GI50 (OVCAR-5 ovarian) | GI50 (UO-31 renal) | GI50 (HL-60(TB) leukemia) | GI50 (NCI-H522 lung) | GI50 (M14 melanoma) | GI50 (ACHN renal)
1 | Cn1cc2ccccc2c1-c1nc(F)nc(Oc2ccc3c(c2)CC[C@@H]2C3CC[C@@]3(C)C2C[C@H](O)[C@@H]3O)n1 (stereo partly drawn) | 34.1 µM | 45.4 µM | 23.5 µM | 15.8 µM | 39.2 µM | 32.3 µM | 43.7 µM | 27.2 µM | 32.2 µM | 47.6 µM | – | – | – | – | – | – | – | – | – | –
2 | O=C1O/C(=C/c2ccccc2)C(c2ccccc2)=C1O | > 100 µM | > 100 µM | 82.7 µM | > 100 µM | > 100 µM | 88.1 µM | 48.3 µM | > 100 µM | > 100 µM | > 100 µM | – | – | – | – | – | – | – | – | – | –
3 | Nc1nc(/C=C\c2ccccc2)nc(N2CCN(c3ccccc3)CC2)n1 | > 100 µM | 69.8 µM | 69.2 µM | > 100 µM | > 100 µM | > 100 µM | 66.3 µM | 84.9 µM | > 100 µM | > 100 µM | 35.4 µM | 22.9 µM | 24.3 µM | 36.3 µM | 58.7 µM | 38.4 µM | 25.4 µM | 28.2 µM | 30.2 µM | 29.2 µM
4 | O=C(/C=C\c1cccc2ccccc12)c1ccc(Cl)cc1Cl | 37.3 µM | > 100 µM | 30.7 µM | 34.2 µM | 72.3 µM | > 100 µM | 41.1 µM | 35.1 µM | 41.3 µM | 32.6 µM | – | – | – | – | – | – | – | – | – | –
5 | N#CC(C(=O)/C(=N\NC(N)=O)C(C#N)c1ccccc1)c1ccccc1 (stereo not drawn) | > 100 µM | > 100 µM | > 100 µM | > 100 µM | > 100 µM | > 100 µM | > 100 µM | > 100 µM | > 100 µM | > 100 µM | – | – | – | – | – | – | – | – | – | –
6 | C/C=C1\CN2CCc3c([nH]c4ccccc34)C2CC1CCO (stereo not drawn) | > 100 µM | > 100 µM | > 100 µM | > 100 µM | > 100 µM | > 100 µM | > 100 µM | > 100 µM | > 100 µM | > 100 µM | – | – | – | – | – | – | – | – | – | –
7 | O=C(Nc1ccc(Cl)c(Cl)c1)C(=O)C(C(=O)c1ccccc1-c1ccccc1)C1OC(=O)c2ccccc21 (stereo not drawn) | 84.5 µM | 73.5 µM | 23 µM | 42.7 µM | 33.9 µM | 33.6 µM | 69.4 µM | 20.6 µM | 30.1 µM | > 100 µM | – | – | – | – | – | – | – | – | – | –
8 | C/C(=C(\c1ccc(OCCN2CCCCCC2)cc1)c1ccc(OC(=O)c2ccccc2)cc1)c1ccc(Cl)cc1 | 10.5 µM | 10.7 µM | 8.08 µM | 9.42 µM | 8.82 µM | 6.17 µM | 11.5 µM | 10.6 µM | 3.33 µM | 9.46 µM | 5.15 µM | 4.36 µM | 3.76 µM | 4.04 µM | 3.93 µM | 1.61 µM | 3.35 µM | 5.27 µM | 0.92 µM | 4.87 µM
9 | CCOc1ccccc1N=Nc1c(-c2ccccc2)nn(C(=O)CC(=O)Nc2cccc(C)c2)c1-c1ccccc1 | > 100 µM | > 100 µM | > 100 µM | > 100 µM | > 100 µM | > 100 µM | > 100 µM | > 100 µM | > 100 µM | > 100 µM | – | – | – | – | – | – | – | – | – | –
10 | COC(=O)C1C(=O)O[C@@H](c2cc(OC)c(OC)cc2OC)C1C(=O)OC (mixture of isomers) | > 100 µM | > 100 µM | > 100 µM | > 100 µM | > 100 µM | > 100 µM | > 100 µM | > 100 µM | > 100 µM | > 100 µM | – | – | – | – | – | – | – | – | – | –
11 | CCc1nc2ccc(N=Nc3c(O)ccc4ccccc34)cc2[nH]1 | 21.6 µM | 36.8 µM | 39.9 µM | 54.4 µM | 34.9 µM | 34.5 µM | 29.8 µM | 50.3 µM | 35.1 µM | 31.5 µM | – | – | – | – | – | – | – | – | – | –
12 | C=CCC(N[C@H](CO)c1ccccc1)c1cn(Cc2ccccc2Cl)c(=O)n(Cc2ccccc2Cl)c1=O (stereo partly drawn) | > 100 µM | 66.3 µM | 34 µM | > 100 µM | > 100 µM | > 100 µM | 34 µM | 89.9 µM | 23.1 µM | 39 µM | 15.2 µM | 13.5 µM | 11.2 µM | 24.3 µM | 25.6 µM | 6.89 µM | 5.87 µM | 14.3 µM | 6.19 µM | 4.78 µM
13 | CC(=O)C1=C(O)C=C2Oc3c(C(=O)/C=C/c4cc(Cl)cc(Cl)c4)c(O)c(C)c(O)c3[C@]2(C)C1=O | 2.26 µM | 4.69 µM | 1.06 µM | 2.21 µM | 8.57 µM | 1.03 µM | 0.87 µM | 0.919 µM | 2.28 µM | 14.2 µM | 0.496 µM | 0.673 µM | 0.41 µM | 0.527 µM | 0.72 µM | 0.392 µM | 0.371 µM | 0.334 µM | 0.567 µM | 0.513 µM
14 | COC(=O)C1=CC2C=CC(C1C(=O)OC)C1C(C(=O)OC)=C(C(=O)OC)C(C(=O)OC)=C(C(=O)OC)C21OC (stereo not drawn) | > 100 µM | > 100 µM | > 100 µM | > 100 µM | > 100 µM | > 100 µM | > 100 µM | > 100 µM | > 100 µM | > 100 µM | – | – | – | – | – | – | – | – | – | –
15 | COc1cc(C2c3cc4c(cc3C(OC(=O)C[n+]3ccccc3)C3COC(=O)C23)OCO4)cc(OC)c1OC (stereo not drawn) | > 100 µM | > 100 µM | > 100 µM | > 100 µM | > 100 µM | > 100 µM | < 0.0287 µM | < 0.01 µM | > 100 µM | > 100 µM | < 0.021 µM | < 0.0207 µM | < 0.021 µM | < 0.0203 µM | – | < 0.0231 µM | < 0.0156 µM | < 0.01 µM | < 0.017 µM | < 0.0204 µM
16 | COc1cc(C(=O)c2cnc(-c3cccc4[nH]ccc34)[nH]2)cc(OC)c1OC | 48.2 µM | > 100 µM | 40 µM | > 100 µM | > 100 µM | 21 µM | < 0.01 µM | – | – | 33.8 µM | – | 0.0966 µM and < 0.01 µM | 0.0603 µM and < 0.01 µM | – | – | < 0.01 µM | < 0.01 µM | 0.0369 µM | 0.0505 µM and < 0.01 µM | –
17 | NC1=NN(c2ccccc2)C(=O)C1C(=O)C(=O)Nc1ccc(Cl)c(Cl)c1 (stereo not drawn) | > 100 µM | > 100 µM | > 100 µM | > 100 µM | > 100 µM | > 100 µM | > 100 µM | > 100 µM | > 100 µM | > 100 µM | – | – | – | – | – | – | – | – | – | –
